In US20120028837A1, “RAPID SCREEN FOR REPRODUCTIVE TOXICANTS” (PRESIDENT AND FELLOWS OF HARVARD COLLEGE, priority 2010, published 2012):

Assays:
xol-1::GFP, nx3 worms = assay: Lethality, chemical sensitivity of xol-1::GFP, nx3 cuticle mutant strain; assay type: in vivo, C. elegans; conditions: four days
Description: (§1) The sensitivity of the xol-1::GFP, nx3 strain compared to the xol-1::GFP strain was assayed by exposing 25 worms for four days (from eggs to adulthood) to a range of concentration of Bisphenol A: 100 μM, 500 μM and 1 mM. The nx3 cuticle mutation was expected to confer increased sensitivity to BPA.

xol-1::GFP worms = assay: Lethality, chemical sensitivity of xol-1::GFP strain; assay type: in vivo, C. elegans; conditions: 100 μM, 500 μM and 1 mM, four days from eggs to adulthood, 25 worms
Description: as §1

C. elegans = conditions: in vivo, 4 days, 1 mM
Description: To address whether BPA also affects C. elegans reproduction, worms were exposed to various concentrations of BPA under several culture conditions. The parameters tested were: BPA concentration (100 uM, 500 uM or 1 mM), vehicle (DMSO or ethanol), cholesterol concentration (5 ug/ml, 0.5 ug/ml or none) and culture method (liquid or plate).
Growing Conditions and Drug Exposures. Worms were cultured according to [23] at 20° C. on NGM plates without cholesterol. […] Exposure was carried from embryogenesis to adulthood by plating sodium hypochloride treated eggs onto drug and control plates and incubated at 20° C. for four days.

in vivo = conditions: C. elegans
Description: The internal concentration of free BPA was measured by tandem HPLC analysis (Axys, BC, Canada) following an extensive number of physiological buffer washes and lysis of worms cultured on BPA plates (Materials an Methods).

[1] = test system: H2B::mCherry; γ-tubulin::GFP transgenic worms; conditions: OD57 (pie-1::mCherry::H2B; pie-1::GFP::gamma tubulin), C. elegans, in vivo
Description: 60 first mitosis in ethanol and BPA exposed H2B::mCherry; γ-tubulin::GFP transgenic worms were captured by live imaging. While normal pronuclear fusion and chromosomal alignment and segregation in ethanol controls was observed, the first division of BPA exposed embryos was highly abnormal. […] In some instances, multiple spindle poles were apparent.
Live Imaging. For live imaging, a pie-1::mCherry::H2B; pie-1::GFP::gamma tubulin OD57 strain was used. The strain was incubated at 25° C. 24 hours prior to imaging. Images were captured using the Leica-Deltavision system described above. Worms were immobilized on an agarose pad by sectioning of the head and images of the first cell division were captured at a rate of one image every 10 seconds for 5 minutes.

C. elegans germline [2] = conditions: in vivo, 4 days, 1 mM
Excerpt: Synapsis and recombination are tightly linked events during pachytene throughout various species, as it is only in the context of a fully assembled SC that crossover recombination can be completed. Indeed, in C. elegans, null mutants of SC components such as syp-1, syp-2, syp-3, syp-4 and him-3, increased levels of RAD-51 foci formation and delayed kinetics of foci turnover are observed during pachytene. Consequently, there is activation of the DNA damage checkpoint leading to increased germ cell apoptosis. Recombination is an essential and highly regulated process for the exchange of information that takes place during prophase I [18]. As nuclei exit mitosis and progress through meiosis, programmed meiotic DNA double strand breaks (DSBs) are formed and processed by several DNA repair proteins including RAD-51 [25, 48]. RAD-51 levels vary greatly during progression through prophase I as it is loaded onto DNA during the process of strand invasion and is removed as DSBs repair progresses. […] As unrepaired recombination intermediates can trigger a DNA-damage checkpoint during pachytene leading to increased germ cell apoptosis, the number of apoptotic nuclei following BPA exposure was measured by Syto-12 staining. […]
Rad-51 Time Course Analysis. The number of RAD-51 foci and their kinetics throughout the seven zones was assessed as described in [25]. […]

C. elegans germline [3] = assay: Synaptonemal complex and chromatin integrity in transition zone and pachytene (HTP-3, SYP-1, HIM-8, DAPI); assay type: in vivo
Excerpt: To examine meiotic chromosome synapsis in C. elegans following BPA exposure, assembly of the synaptonemal complex was examined by assessing the localization of the axial element protein HTP-3 (a paralogue of the axial component HIM-3 required for proper synapsis and pairing of homologous chromosomes) and the central region protein SYP-1 [45], as the nuclei enter meiosis. As nuclei exit mitosis and progress into meiosis in wild type germlines, HTP-3 and SYP-1 are assembled onto the chromatin as foci and short tracks which increase in length through the transition zone. By pachytene, the polymerization of the SC is completed and both proteins form fully elongated tracks spanning the entire length of the homologous chromosomes. Following exposure to BPA, the kinetics and extent of assembly of HTP-3 and SYP-1 onto the chromatin during transition zone were not affected when compared to control (n=10 gonads).
These abnormal nuclei were not simply apoptotic nuclei as they were not specifically found near the bend of the gonad, where germline nuclei were cleared by apoptosis but instead could be found throughout pachytene. As disruption of the integrity of the SC could lead to a separation of the homologous chromosomes, the localization of the X specific pairing center component HIM-8 was examined. In C. elegans, specific loci, termed pairing centers, on chromosomes allow for the physical interaction between homologous pairs. HIM-8 along with other pairing center components associate with the pairing centers and the nuclear envelope and mediate homologous pairing.

SMILES: CC(C)(c1ccc(O)cc1)c1ccc(O)cc1 [BPA, Bisphenol A]
- lethality (xol-1::GFP, nx3 worms; 100 μM): 0%
- lethality (xol-1::GFP, nx3 worms; 500 μM): 96%
- lethality (xol-1::GFP, nx3 worms; 1 Mm): 100%
- lethality (xol-1::GFP worms): 0%
- embryonic viability (C. elegans): 1.5 % of controls
- reduction in the number of eggs laid (brood size) compared to vehicle (C. elegans): 4 fold
- concentration at 4 days, 1 mM (in vivo): 2000 ng/g
- one-cell embryos failing to align on the metaphase plate and/or segregate properly [1]: 9/60
- RAD-51 foci in late pachytene (zones 6 and 7) (C. elegans germline [2]): elevated number of RAD-51 foci
- pachytene nuclei with DAPI stained bodies or fragments (C. elegans germline [3]; BPA exposure): about 10%
- kinetics and extent of assembly of HTP-3 and SYP-1 onto chromatin during transition zone (C. elegans germline [3]; BPA exposure vs control): not affected
- HIM-8 foci per nucleus throughout pachytene (C. elegans germline [3]; BPA treated worms): 1 focus per nucleus
- chromosome synapsis in pachytene nuclei (SYP-1 staining) (C. elegans germline [3]; BPA treated worms): defects in chromosome synapsis
